Entries after “also recorded” stand apart in the source; their conditions may differ. Residues, ends and D or L forms follow the SMILES beside them. *: point of attachment. Cbz = O=C(OCc1ccccc1)*

For assay [1], the system named is Molm13 PPM1D-mutant and control single cell clones. In words: 72-hour cell viability analysis. The format is cell-based, human. To be noted: for viability of PPM1D-mutant cells versus control cells in the presence of chemotherapeutic agent: 72 hours, increasing concentrations. As for the experimental part: FIG. 2B provides immunoblots of whole cell lysates from Molm13 control cells (control), PPM1D-mutant pooled clones and PPM1D frame-shift (fs) mutant single cell clones probed with anti-PPM1D and anti-Actin. […] FIG. 2D is a plot depicting viability assays in Molm13 PPM1D-mutant or control single cells clones that were treated with increasing concentrations of cyclophosphamide for 72 hours. FIG. 2E is a plot depicting viability assays in Molm13 PPM1D-mutant or control single cells clones that were treated with increasing concentrations of cisplatin for 72 hours. […] FIG. 2G is a plot depicting flow cytometric readout of competition experiment with 5% pooled Molm13 PPM1D-mutant cells and 95% pooled Molm13 control cells exposed to 350 nM Cyclophosphamide or vehicle for 24 days. FIG. 2H is a plot depicting flow cytometric readout of competition experiment with 5% pooled Molm13 PPM1D-mutant cells and 95% pooled Molm13 control cells exposed to 1 μM Cisplatin or vehicle for 24 days. […] PPM1D and control sgRNAs were identified through their fluorophores.
The line represents the locally weighted scatterplot smoothing (LOESS) of 0.1. […] FIG. 8B is a vector map of the degradation reporter vector, with different PPM1D cDNA constructs inserted. FIG. 8C is a graph showing EGFP/mCherry ratio for Molm13 cells with overexpression of wild type PPM1D, truncated PPM1D or the C-terminal end of PPM1D. FIG. 8D is a graph showing EGFP/mCherry ratio for Molm13 p53^−/− cells with overexpression of wild type PPM1D, truncated PPM1D or the C-terminal end of PPM1D. FIG. 8E is a graph showing EGFP/mCherry ratio in Molm13 cells before and after exposure to MG132 (10 μM, 6 hours), normalized to pre-treatment values. FIG. 8F is a plot showing cell viability analysis in Molm13 control cells (control), Molm13 PPM1D truncating mutant cells (PPM1D mutant) and Molm13 cells with overexpression of wild-type PPM1D (WT overexpression). […] For all experiments the following apply: *=p<0.05, **=p<0.01, ***=p<0.001,****=p<0.0001
(§1) 72 hour cell viability analysis in Molm13 PPM1D-mutant and control single cell clones after exposure to increasing doses of GSK2830371. FIG. 10F is a graph showing percent Annexin V positive cells in cells treated with PPM1D inhibitor or vehicle. Annexin V staining and flow cytometric analysis of Molm13 PPM1D-mutant and control single cell clones exposed to 3 μM of GSK2830371. *=p<0.05, **=p<0.01, ***=p<0.001
To study the role of PPM1D mutations in chemotherapy resistance, mutations in PPM1D were induced using the CRISPR-Cas9 system. […] Using sequence verified PPM1D mutant (fs) and empty vector control Molm13 cells, the effects of mutant and wild type PPM1D in the response to DNA damaging chemotherapy were analyzed. […] (FIG. 1C).
(§2) To study the sensitivity of PPM1D truncating mutations to chemotherapy exposure, frame-shift mutations were introduced in the PPM1D gene in Molm13 AML cells, which are TP53 wild-type, using CRISPR-Cas9.

The test system of assay [2] is Molm13 PPM1D-mutant pooled cells and control pooled cells. In words: In vitro competition experiment, PPM1D-mutant cells mixed with control cells. To be noted: PPM1D mutant cells mixed with control cells. The format is cell-based, human. As for the experimental part:
FIG. 2B provides immunoblots of whole cell lysates from Molm13 control cells (control), PPM1D-mutant pooled clones and PPM1D frame-shift (fs) mutant single cell clones probed with anti-PPM1D and anti-Actin. […] FIG. 2D is a plot depicting viability assays in Molm13 PPM1D-mutant or control single cells clones that were treated with increasing concentrations of cyclophosphamide for 72 hours. FIG. 2E is a plot depicting viability assays in Molm13 PPM1D-mutant or control single cells clones that were treated with increasing concentrations of cisplatin for 72 hours. […] FIG. […] FIG. […] PPM1D and control sgRNAs were identified through their fluorophores.
as §1, §2

For assay [3], the system named is Molm13 PPM1D-mutant and control single cell clones. Nature of the assay: Annexin V staining and flow cytometric analysis. To be noted: 400 nM cytarabine, 24 hours. The format is cell-based, human.
Excerpt: FIG. 9E is a chart depicting the consensus sequence of PPM1D based on substrate analysis of 43 substrate candidates of PPM1D. FIG. 9F depicts 43 potential PPM1D substrate sites on pSer/Thr residues on 25 proteins. […] Only localized sites were considered. Figure discloses SEQ ID NOS 4-20 and 20-31, respectively, in order of appearance. FIG. 9G depicts a schema illustrating the components of the DNA-damage response pathway that are targeted by PPM1D in leukemia cells, based on the results from the phosphoproteomics analysis. Phospho-targets of PPM1D identified by mass spectrometry (FDR<0.1) are shown in bold. Predicted PPM1D target sites that were based on the identified consensus sequence with a glutamine at +1 and >2 acidic residues (p=3.595e-13, Fisher's exact test) are shown in italics.
as §1

For a further assay, the system named is PPM1D-mutant cells. In words: In vivo competition experiment in bone marrow chimeras treated with cytarabine. To be noted: mice. From the text: FIG. 5 provides an experimental schema of an in vivo competition experiment. Bone marrow chimaeras were generated by transplanting Mx-Cre Cas9 cKit^+Cas9 cells transduced with a BFP-tagged sgRNA targeting exon 6 of PPM1D or a tRFP-tagged control sgRNA into lethally-irradiated syngeneic recipients in a 1:5 ratio.
PPM1D and control sgRNAs were identified through their fluorophores. […] […] PPM1D and control sgRNAs were identified through their fluorophores.
Whether PPM1D mutations confer resistance to chemotherapy in vivo was examined. In another experiment, bone marrow chimeras were generated using Mx-Cre Cas9 c-Kit^+ cells that were transduced with a BFP-tagged sgRNA targeting exon 6 of PPM1D or a tRFP-tagged control sgRNA and transplanted into lethally-irradiated syngeneic recipients in a 1:5 ratio (FIG. 5). Mice were treated with cytarabine or vehicle after hematopoietic reconstitution.

Assay [4] deals with Molm13 PPM1D-mutant and control single cell clones. In words: BrdU staining and flow cytometric analysis (cell cycle). To be noted: 100 nM cytarabine, 24 hours. The assay is classed as cell-based, human.
The next assay relates to PPM1D. In words: PPM1D degradation reporter (EGFP/mCherry ratio). The format is cell-based, human. The conditions noted are these: Molm13 cells, MG132 10 μM, 6 hours. From the text:
The line represents the locally weighted scatterplot smoothing (LOESS) of 0.1. Overlaid are frame-shift and non-sense mutations (black bars) identified in the blood cells of 29,562 persons as described in FIG. 2A. FIG. 8B is a vector map of the degradation reporter vector, with different PPM1D cDNA constructs inserted. FIG. 8C is a graph showing EGFP/mCherry ratio for Molm13 cells with overexpression of wild type PPM1D, truncated PPM1D or the C-terminal end of PPM1D. FIG. 8D is a graph showing EGFP/mCherry ratio for Molm13 p53^−/− cells with overexpression of wild type PPM1D, truncated PPM1D or the C-terminal end of PPM1D. FIG. 8E is a graph showing EGFP/mCherry ratio in Molm13 cells before and after exposure to MG132 (10 μM, 6 hours), normalized to pre-treatment values. […]
A reporter vector was generated in which wild-type PPM1D cDNA (wt), PPM1D truncation mutants, or the last 80 amino-acids (C-terminal region) were cloned in frame with GFP, so the level of expression of the PPM1D sequences could be monitored by GFP expression (FIG. 8B, Table 1).
The fluorescence level of mCherry, which is expressed following an IRES sequence, provided an internal control for vector expression in each cell. […]

Consider `O=C1/C(=C/c2cccs2)CC/C1=C\c1cccs1` [CCT007093], for which, in assay [1] (72 hour, increasing doses), the “sensitivity of PPM1D-mutant cells versus control cells to single agent PPM1D inhibitor, cell viability” value is on record as “increased sensitivity to treatment with the PPM1D inhibitor CCT007093 in comparison to wild-type (wt) control cells; also recorded: increased sensitivity to PPM1D inhibition with either compound in comparison to wild type control cells”.
For `O=P1(N(CCCl)CCCl)NCCCO1` (stereo not drawn) [Cyclophosphamide], the “competitive advantage of PPM1D-mutant cells under chemotherapy” value in assay [2] is listed as “PPM1D mutant cells had a competitive advantage”. In addition, the “viability of PPM1D-mutant cells versus control cells in the presence of chemotherapeutic agent” value in assay [1] is recorded as “increased viability at 72 hours”.
Consider `Nc1ccn([C@@H]2O[C@H](CO)[C@@H](O)[C@@H]2O)c(=O)n1` [Cytarabine], for which the “competitive advantage of PPM1D-mutant cells under chemotherapy” value in assay [2] was “PPM1D mutant cells had a competitive advantage”. Also, the “apoptosis of PPM1D-mutant versus control cells after chemotherapy, Annexin V staining” value in assay [3] is listed as “decreased apoptosis”. In addition, the “viability of PPM1D-mutant cells versus control cells in the presence of chemotherapeutic agent” value in assay [1] is listed as “increased resistance to Cytarabine in PPM1D mutant cells compared to empty vector controls; also recorded: resistance to treatment with Cytarabine”; in assay [1] (listed as cytarabine), “increased viability at 72 hours”. The “PPM1D-mutant cells in the peripheral blood after cytarabine treatment” value in the assay with PPM1D-mutant cells (1:5 chimeras, several rounds of cytarabine) is given as “significant, selective increase of PPM1D-mutant cells in the peripheral blood”. For the same compound, the “PPM1D-mutant hematopoietic stem and progenitor cells in the bone marrow” value with PPM1D-mutant cells (12 weeks, 3 rounds of cytarabine) was “also increased”. Further, the “progression to G2/M phase of PPM1D-mutant versus control cells after chemotherapy” value in assay [4] is recorded as “increased progression to G2/M phase”.
Consider `CC(C)C[C@@H](C=O)NC(=O)[C@H](CC(C)C)NC(=O)[C@H](CC(C)C)NC(=O)OCc1ccccc1` [MG132] (Cbz-Leu-Leu-Leu-aldehyde), for which the “degradation of PPM1D constructs (EGFP/mCherry ratio)” value in the assay with PPM1D was “decreased degradation of wild-type and C-terminal PPM1D, but not of the truncating mutants”.
Consider `N.N.[Cl][Pt][Cl]` [Cisplatin], for which the “viability of PPM1D-mutant cells versus control cells in the presence of chemotherapeutic agent” value in assay [1] was “increased viability at 72 hours”.

Values taken from US12201620B2, “Compositions and methods for treating chemotherapy resistant cancer” (The Brigham And Women's Hospital, Inc., priority 2016, dated 2025).
